Assay results published in PubChem BioAssay AID1288 (Columbia University Molecular Screening Center, 2008).
Calls of active or inactive are those of the source. No rule for the calls is given here.

assay: inhibitors of TNFa-induced E-selectin expression, confirmation, imaging, retest plus dose response, cell count (AID 1288); conditions: human endothelial cells, TNFa-induced E-selectin, imaging; at 2 µM; active compounds read high;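 also: 0% = stimulated vehicle wells and 100% = unstimulated vehicle wells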

Q: For `CS(=O)(=O)c1ccc(Cl)c(NC(=O)c2ccc3ccccc3c2)c1`, which inhibition is on record?
A: 4.97% (inactive)

Q: Which inhibition does the source give for `Cc1ccc(C)n1-c1cccc(NC(=O)c2ccccc2)c1` here?
A: 0.87% (inactive)

Q: For `Fc1ccc(CNc2nc(-c3ccccc3)nc3ccccc23)cc1`, which inhibition is on record?
A: 26.5% (inactive)

Q: For `COc1ccc2c(c1OC)C(=O)OC2c1c(O)nc(SC)n(-c2ccccc2)c1=O` (centres undefined), which inhibition is on record?
A: 4.68% (inactive)

Q: Which inhibition does the source give for `C=CCn1c(O)c(C(C)=Nc2ccc(NC(C)=O)cc2)c(=O)[nH]c1=O` here?
A: 17.3% (inactive)

Q: With `Cc1cc(SCC(=O)c2cccs2)nc2ccccc12` as the compound, how does the inhibition read?
A: 8.62% (inactive)

Q: Which inhibition does the source give for `O=C(Nc1ccc(F)cc1)N1CCOCC1` here?
A: 29.5% (inactive)

Q: Which inhibition does the source give for `O=C(C1CCN(S(=O)(=O)c2cnc[nH]2)CC1)N1CCN(c2ncccn2)CC1` here?
A: 31.7% (inactive)

Q: With `COc1ccc(C(CC(=O)NCc2ccccc2)Sc2n[nH]c(-c3ccccc3)n2)cc1` (centres undefined) as the compound, how does the inhibition read?
A: 29.1% (inactive)

Q: Which inhibition does the source give for `N/C(=N\S(=O)(=O)c1cccs1)c1ccccc1` here?
A: 13.7% (inactive)

Q: For `COC(=O)C1=NN(c2cccc(C)c2)C2C(=O)N(c3ccccc3OC)C(=O)C12` (centres undefined), which inhibition is on record?
A: 8.46% (inactive)

Q: For `CC(C)(C)c1ccc(OCCCNCc2ccccc2)cc1`, which inhibition is on record?
A: -6.22% (inactive)

Q: Which inhibition does the source give for `CN(C)S(=O)(=O)c1cc(NC(=O)CSc2nn(-c3ccc(Cl)cc3)c(=S)s2)ccc1Cl` here?
A: -2.75% (inactive)

Q: Which inhibition does the source give for `CC(C)C(c1nnnn1Cc1ccccc1)N1CCC(C(N)=O)CC1` (centres undefined) here?
A: 9.62% (inactive)

Q: With `Cc1ccc(O)c(NC(=S)NC(=O)c2ccc(-c3ccc(Cl)cc3)o2)c1` as the compound, how does the inhibition read?
A: 20.3% (inactive)

Q: For `CCn1cc(C(=O)NCc2ccco2)c(=O)c2cc(S(=O)(=O)N3CCc4ccccc4C3)ccc21`, which inhibition is on record?
A: 41.9% (inactive)

Q: For `COC(=O)c1cc2ccsc2n1Cc1nc(-c2cccc(Cl)c2)oc1C`, which inhibition is on record?
A: -2.86% (inactive)

Q: For `COc1ccc(S(=O)(=O)Nc2cccc(S(=O)(=O)N3CCCCCC3)c2)cc1`, which inhibition is on record?
A: 31% (inactive)

Q: Which inhibition does the source give for `COc1cc(S(=O)(=O)N(Cc2ccccn2)Cc2ccco2)ccc1-n1cnnn1` here?
A: 2% (inactive)

Q: For `CCCc1[nH]nc2c1C(c1ccc(O)c(OC)c1)C(C#N)=C(N)O2` (centres undefined), which inhibition is on record?
A: 16.6% (inactive)

Q: With `C=CCn1c(SCC(=O)NCc2ccccc2)nnc1-c1ccccc1O` as the compound, how does the inhibition read?
A: -0.67% (inactive)

Q: For `CCc1n[nH]c2c1C(=O)CC(C)(C)C2`, which inhibition is on record?
A: 18% (inactive)

Q: With `Cc1ccc(C(C)n2cc(C(=O)NCCN3CCN(C)CC3)nn2)cc1` (centres undefined) as the compound, how does the inhibition read?
A: 22.4% (inactive)

Q: Which inhibition does the source give for `CCc1ccc(N2CC(C(=O)Nc3cccnc3)CC2=O)cc1` (centres undefined) here?
A: 30.5% (inactive)

Q: For `COCCN1C(=O)N(c2cccc(C)c2)C(=O)C1CC(=O)Nc1ccc(F)cc1` (centres undefined), which inhibition is on record?
A: 12% (inactive)

Q: Which inhibition does the source give for `COc1ccc(Cl)cc1NC(=S)NCc1ccco1` here?
A: 2.52% (inactive)

Q: Which inhibition does the source give for `CC(NC(=O)COc1cccc(Br)c1)C(=O)O` (centres undefined) here?
A: 24.6% (inactive)

Q: With `O=C(O)C1C2C=CC(C2)C1C(=O)NCCCc1ccccc1` (centres undefined) as the compound, how does the inhibition read?
A: 3.67% (inactive)

Q: With `Cc1ccc(C)c(NC(=O)CSc2nnc([C@@H](N)Cc3ccccc3)o2)c1` as the compound, how does the inhibition read?
A: 13.6% (inactive)

Q: For `O=C(N/N=C1/CCS(=O)(=O)c2ccc(F)cc21)c1ccccn1`, which inhibition is on record?
A: 8.24% (inactive)

Q: With `Cc1ccc2cc(C#N)c(N3CCCC3)nc2c1C` as the compound, how does the inhibition read?
A: 8.05% (inactive)

Q: With `CCOC(=O)N(c1ccccc1)P1(=S)OCCO1` as the compound, how does the inhibition read?
A: 10.4% (inactive)

Q: With `CC(Oc1ccc(Cl)cc1Cl)C(=O)N(Cc1ccco1)C1CCS(=O)(=O)C1` (centres undefined) as the compound, how does the inhibition read?
A: 33.5% (inactive)

Q: Which inhibition does the source give for `Cc1cc(S(=O)(=O)N2CCN(c3ccccc3O)CC2)c(C)s1` here?
A: 5.21% (inactive)

Q: For `O=C(/C=C\Nc1cccc(F)c1)c1cccs1`, which inhibition is on record?
A: -1.7% (inactive)

Q: Which inhibition does the source give for `CCCCOC(=O)CCn1c(=S)oc2ccccc21` here?
A: 1.96% (inactive)

Q: Which inhibition does the source give for `O=C(c1c(Cl)nc2sccn12)N1CCCc2ccccc21` here?
A: 0.11% (inactive)

Q: With `CN(C)CCNC(=O)/C(=C/c1ccc(-c2ccc(Cl)cc2)o1)NC(=O)c1ccccc1` as the compound, how does the inhibition read?
A: 0.09% (inactive)

Q: With `CC(C)C(=O)Nc1ccc(-c2nc3cccnc3o2)cc1` as the compound, how does the inhibition read?
A: 15.7% (inactive)

Q: Which inhibition does the source give for `COc1ccc(C(=O)NCC(C)C)c(OC)c1` here?
A: 24.1% (inactive)

Q: For `CC1CCN(S(=O)(=O)c2ccc(NC(=O)CSc3ncccc3C(=O)O)cc2)CC1`, which inhibition is on record?
A: 5.02% (inactive)

Q: Which inhibition does the source give for `CCCn1nnc(NC(=O)c2cccc(OCC(C)C)c2)n1` here?
A: 27.2% (inactive)

Q: With `COc1ccc(C(=O)C(CO)Oc2ccccc2OC)cc1OC` (centres undefined) as the compound, how does the inhibition read?
A: 1.41% (inactive)

Q: Which inhibition does the source give for `O=C1c2ccccc2C(Nc2ccc(S(=O)(=O)N3CCCCCC3)cc2)N1Cc1ccco1` (centres undefined) here?
A: 1.55% (inactive)

Q: For `O=C1CC(c2ccccc2)CC2=C1CN(C1CCCCC1)CN2` (centres undefined), which inhibition is on record?
A: 10.2% (inactive)

Q: For `O=C(Nc1ccccc1C(=O)N/N=C/c1ccco1)c1ccc(F)cc1`, which inhibition is on record?
A: 10.5% (inactive)

Q: For `O=C(CSc1ncnc2nc[nH]c12)Nc1ccccc1C(F)(F)F`, which inhibition is on record?
A: 30.5% (inactive)

Q: With `CC(Sc1nnc2c(n1)C1CCC2(C)C1(C)C)C(=O)Nc1ccccc1` (centres undefined) as the compound, how does the inhibition read?
A: 9.66% (inactive)

Q: Which inhibition does the source give for `CCC(C)c1ccccc1OCCCCN1CCCC1` (centres undefined) here?
A: -2.07% (inactive)
